In the data set the target is P-gp (Homo sapiens, UniProt P08183). Nature of the data set: Transporter substrate assessment. The data set is classed as in vitro ADME. Conditions: result in words.

Molecules are shown by their SMILES.

Sequence of P-gp (P08183 whole entry): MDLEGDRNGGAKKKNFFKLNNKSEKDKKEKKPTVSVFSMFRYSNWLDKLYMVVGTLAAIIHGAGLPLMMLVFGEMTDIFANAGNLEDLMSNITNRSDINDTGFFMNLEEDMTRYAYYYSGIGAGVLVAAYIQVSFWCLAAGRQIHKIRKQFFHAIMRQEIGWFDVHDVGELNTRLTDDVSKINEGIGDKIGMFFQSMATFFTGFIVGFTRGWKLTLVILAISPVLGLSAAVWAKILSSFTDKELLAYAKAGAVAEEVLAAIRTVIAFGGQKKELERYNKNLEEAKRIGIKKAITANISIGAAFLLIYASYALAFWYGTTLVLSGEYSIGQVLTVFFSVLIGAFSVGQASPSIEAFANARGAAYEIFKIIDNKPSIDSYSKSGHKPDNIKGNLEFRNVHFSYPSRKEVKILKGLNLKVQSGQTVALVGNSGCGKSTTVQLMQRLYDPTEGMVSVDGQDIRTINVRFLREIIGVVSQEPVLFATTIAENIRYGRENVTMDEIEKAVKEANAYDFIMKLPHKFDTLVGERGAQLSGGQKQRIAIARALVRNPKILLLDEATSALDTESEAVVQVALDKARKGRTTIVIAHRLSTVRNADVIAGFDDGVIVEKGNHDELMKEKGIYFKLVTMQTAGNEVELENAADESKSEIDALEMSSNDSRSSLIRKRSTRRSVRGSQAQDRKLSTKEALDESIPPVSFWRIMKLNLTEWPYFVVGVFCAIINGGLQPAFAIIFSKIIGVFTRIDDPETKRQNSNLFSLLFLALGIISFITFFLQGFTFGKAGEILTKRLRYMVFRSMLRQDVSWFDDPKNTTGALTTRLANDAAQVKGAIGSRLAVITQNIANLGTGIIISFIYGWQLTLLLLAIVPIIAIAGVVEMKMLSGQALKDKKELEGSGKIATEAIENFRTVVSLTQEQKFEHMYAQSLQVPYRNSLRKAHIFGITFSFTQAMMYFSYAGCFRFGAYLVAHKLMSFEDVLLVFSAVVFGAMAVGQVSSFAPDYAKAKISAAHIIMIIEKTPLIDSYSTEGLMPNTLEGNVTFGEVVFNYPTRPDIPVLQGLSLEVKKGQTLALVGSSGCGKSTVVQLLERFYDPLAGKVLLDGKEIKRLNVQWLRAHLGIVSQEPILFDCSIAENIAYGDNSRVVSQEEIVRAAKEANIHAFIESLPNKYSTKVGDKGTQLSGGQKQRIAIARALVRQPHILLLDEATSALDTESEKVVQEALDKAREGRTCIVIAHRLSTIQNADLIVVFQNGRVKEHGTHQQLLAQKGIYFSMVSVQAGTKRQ

Turning to `COC(=O)N1CCN(Cc2cccc(NC(=O)Nc3ccc(C)nc3)c2F)CC1` [omecamtiv mecarbil], the “Substrate of P-gp” value is reported as “substrate”.

For the origin of these results see patent publication US12194039B2, “Methods of treating heart failure by administering omecamtiv mecarbil” (Cytokinetics, Inc., priority 2020, dated 2025).
